US20240415914A1, “Water Dispersible Cannabinoid Compositions” (priority 2021, published 2024)
Like-named read-outs stand apart in the source and are kept apart here.

Tests used:
[1] = assay type: physicochemical; conditions: stored at room temperature (21-25° C.)
Method: At each time period, 0.05 g of powder was dissolved in 10 ml-15 of ethanol, diluted to fall within the analytical range, and injected into the LCMSMS for analysis.

[2] = Stability of cannabinoid and Vitamin E components of Beverage 2 (AB Red) stored at 8° C. and 21-25° C., LCMSMS over 570 days
Method: The LCMSMS was calibrated for 0-50 ng/ml cannabinoids with the same resin material used in the preparation of the concentrates. At each time period, 100 μml of beverage was diluted with 10 ml of methanol and injected into the LCMSMS for analysis.

SMILES: C=C(C)[C@@H]1CCC(C)=C[C@H]1c1c(O)cc(CCC)cc1O [CBDV, cannabidivarin]
- Stability in Powder Concentrate (content by LCMSMS) ([1]; day 0): 0.050 mg/g powder
- Stability in Powder Concentrate (content by LCMSMS) ([1]; day 1): 0.051 mg/g powder
- Stability in Powder Concentrate (content by LCMSMS) ([1]; day 2): 0.051 mg/g powder
- Stability in Powder Concentrate (content by LCMSMS) ([1]; day 3): 0.048 mg/g powder
- Stability in Powder Concentrate (content by LCMSMS) ([1]; day 5): 0.050 mg/g powder
- Stability in Powder Concentrate (content by LCMSMS) ([1]; day 8): 0.051 mg/g powder
- Stability in Powder Concentrate (content by LCMSMS) ([1]; day 9): 0.049 mg/g powder
- Stability in Powder Concentrate (content by LCMSMS) ([1]; day 10): 0.050 mg/g powder
- Stability in Powder Concentrate (content by LCMSMS) ([1]; day 11): 0.051 mg/g powder
- Stability in Powder Concentrate (content by LCMSMS) ([1]; day 12): 0.051 mg/g powder
- Stability in Powder Concentrate (content by LCMSMS) ([1]; day 15): 0.050 mg/g powder
- Stability in Powder Concentrate (content by LCMSMS) ([1]; day 16): 0.049 mg/g powder
- Stability in Powder Concentrate (content by LCMSMS) ([1]; day 17): 0.051 mg/g powder
- Stability in Powder Concentrate (content by LCMSMS) ([1]; day 18): 0.051 mg/g powder
- Stability in Powder Concentrate (content by LCMSMS) ([1]; day 19): 0.048 mg/g powder
- Stability in Powder Concentrate (content by LCMSMS) ([1]; day 22): 0.049 mg/g powder
- Stability in Powder Concentrate (content by LCMSMS) ([1]; day 23): 0.050 mg/g powder
- Stability in Powder Concentrate (content by LCMSMS) ([1]; day 24): 0.051 mg/g powder
- Stability in Powder Concentrate (content by LCMSMS) ([1]; day 25): 0.052 mg/g powder
- Stability in Powder Concentrate (content by LCMSMS) ([1]; day 26): 0.050 mg/g powder
- Stability in Powder Concentrate (content by LCMSMS) ([1]; day 29): 0.049 mg/g powder
- Stability in Powder Concentrate (content by LCMSMS) ([1]; day 30): 0.051 mg/g powder
- Stability in Powder Concentrate (content by LCMSMS) ([1]; day 60): 0.050 mg/g powder
- Stability in Powder Concentrate (content by LCMSMS) ([1]; day 90): 0.050 mg/g powder
- Stability in Powder Concentrate (content by LCMSMS) ([1]; day 120): 0.050 mg/g powder
- Stability in Powder Concentrate (content by LCMSMS) ([1]; day 150): 0.051 mg/g powder
- Stability in Powder Concentrate (content by LCMSMS) ([1]; day 180): 0.050 mg/g powder
- Stability in Powder Concentrate (content by LCMSMS) ([1]; day 210): 0.049 mg/g powder
- Stability in Powder Concentrate (content by LCMSMS) ([1]; day 240): 0.052 mg/g powder
- Stability in Powder Concentrate (content by LCMSMS) ([1]; day 270): 0.051 mg/g powder
- Stability in Powder Concentrate (content by LCMSMS) ([1]; day 300): 0.049 mg/g powder
- Stability in Powder Concentrate (content by LCMSMS) ([1]; day 330): 0.052 mg/g powder
- Stability in Powder Concentrate (content by LCMSMS) ([1]; day 360): 0.050 mg/g powder
- Stability in Powder Concentrate (content by LCMSMS) ([1]; day 390): 0.049 mg/g powder
- Stability in Powder Concentrate (content by LCMSMS) ([1]; day 420): 0.051 mg/g powder
- Stability in Powder Concentrate (content by LCMSMS) ([1]; day 450): 0.049 mg/g powder
- Stability in Powder Concentrate (content by LCMSMS) ([1]; day 480): 0.051 mg/g powder
- Stability in Powder Concentrate (content by LCMSMS) ([1]; day 510): 0.049 mg/g powder
- Stability in Powder Concentrate (content by LCMSMS) ([1]; day 540): 0.052 mg/g powder
- Stability in Powder Concentrate (content by LCMSMS) ([1]; day 570): 0.048 mg/g powder
- Stability of Cannabinoids in AB Red ([2]; 8° C., 0 days): 0.200 µg/mL
- Stability of Cannabinoids in AB Red ([2]; 8° C., 1 days): 0.194 µg/mL
- Stability of Cannabinoids in AB Red ([2]; 8° C., 2 days): 0.197 µg/mL
- Stability of Cannabinoids in AB Red ([2]; 8° C., 3 days): 0.199 µg/mL
- Stability of Cannabinoids in AB Red ([2]; 8° C., 5 days): 0.198 µg/mL
- Stability of Cannabinoids in AB Red ([2]; 8° C., 8 days): 0.198 µg/mL
- Stability of Cannabinoids in AB Red ([2]; 8° C., 9 days): 0.201 µg/mL
- Stability of Cannabinoids in AB Red ([2]; 8° C., 10 days): 0.194 µg/mL
- Stability of Cannabinoids in AB Red ([2]; 8° C., 11 days): 0.195 µg/mL
- Stability of Cannabinoids in AB Red ([2]; 8° C., 12 days): 0.198 µg/mL
- Stability of Cannabinoids in AB Red ([2]; 8° C., 15 days): 0.194 µg/mL
- Stability of Cannabinoids in AB Red ([2]; 8° C., 16 days): 0.195 µg/mL
- Stability of Cannabinoids in AB Red ([2]; 8° C., 17 days): 0.195 µg/mL
- Stability of Cannabinoids in AB Red ([2]; 8° C., 18 days): 0.195 µg/mL
- Stability of Cannabinoids in AB Red ([2]; 8° C., 19 days): 0.199 µg/mL
- Stability of Cannabinoids in AB Red ([2]; 8° C., 22 days): 0.200 µg/mL
- Stability of Cannabinoids in AB Red ([2]; 8° C., 23 days): 0.194 µg/mL
- Stability of Cannabinoids in AB Red ([2]; 8° C., 24 days): 0.197 µg/mL
- Stability of Cannabinoids in AB Red ([2]; 8° C., 25 days): 0.199 µg/mL
- Stability of Cannabinoids in AB Red ([2]; 8° C., 26 days): 0.199 µg/mL
- Stability of Cannabinoids in AB Red ([2]; 8° C., 29 days): 0.197 µg/mL
- Stability of Cannabinoids in AB Red ([2]; 8° C., 30 days): 0.200 µg/mL
- Stability of Cannabinoids in AB Red ([2]; 8° C., 60 days): 0.199 µg/mL
- Stability of Cannabinoids in AB Red ([2]; 8° C., 90 days): 0.196 µg/mL
- Stability of Cannabinoids in AB Red ([2]; 8° C., 120 days): 0.193 µg/mL
- Stability of Cannabinoids in AB Red ([2]; 8° C., 150 days): 0.198 µg/mL
- Stability of Cannabinoids in AB Red ([2]; 8° C., 180 days): 0.192 µg/mL
- Stability of Cannabinoids in AB Red ([2]; 8° C., 210 days): 0.193 µg/mL
- Stability of Cannabinoids in AB Red ([2]; 8° C., 240 days): 0.192 µg/mL
- Stability of Cannabinoids in AB Red ([2]; 8° C., 270 days): 0.195 µg/mL
- Stability of Cannabinoids in AB Red ([2]; 8° C., 300 days): 0.193 µg/mL
- Stability of Cannabinoids in AB Red ([2]; 8° C., 330 days): 0.191 µg/mL
- Stability of Cannabinoids in AB Red ([2]; 8° C., 390 days): 0.194 µg/mL
- Stability of Cannabinoids in AB Red ([2]; 8° C., 420 days): 0.193 µg/mL
- Stability of Cannabinoids in AB Red ([2]; 8° C., 450 days): 0.195 µg/mL
- Stability of Cannabinoids in AB Red ([2]; 8° C., 480 days): 0.190 µg/mL
- Stability of Cannabinoids in AB Red ([2]; 8° C., 510 days): 0.184 µg/mL
- Stability of Cannabinoids in AB Red ([2]; 8° C., 540 days): 0.185 µg/mL
- Stability of Cannabinoids in AB Red ([2]; 8° C., 570 days): 0.183 µg/mL
- Stability of Cannabinoids in AB Red ([2]; 21-25° C., 0 days): 0.20 µg/mL
- Stability of Cannabinoids in AB Red ([2]; 21-25° C., 1 days): 0.20 µg/mL
- Stability of Cannabinoids in AB Red ([2]; 21-25° C., 2 days): 0.20 µg/mL
- Stability of Cannabinoids in AB Red ([2]; 21-25° C., 3 days): 0.20 µg/mL
- Stability of Cannabinoids in AB Red ([2]; 21-25° C., 5 days): 0.19 µg/mL
- Stability of Cannabinoids in AB Red ([2]; 21-25° C., 8 days): 0.20 µg/mL
- Stability of Cannabinoids in AB Red ([2]; 21-25° C., 9 days): 0.20 µg/mL
- Stability of Cannabinoids in AB Red ([2]; 21-25° C., 10 days): 0.20 µg/mL
- Stability of Cannabinoids in AB Red ([2]; 21-25° C., 11 days): 0.20 µg/mL
- Stability of Cannabinoids in AB Red ([2]; 21-25° C., 12 days): 0.20 µg/mL
- Stability of Cannabinoids in AB Red ([2]; 21-25° C., 15 days): 0.20 µg/mL
- Stability of Cannabinoids in AB Red ([2]; 21-25° C., 16 days): 0.19 µg/mL
- Stability of Cannabinoids in AB Red ([2]; 21-25° C., 17 days): 0.20 µg/mL
- Stability of Cannabinoids in AB Red ([2]; 21-25° C., 18 days): 0.20 µg/mL
- Stability of Cannabinoids in AB Red ([2]; 21-25° C., 19 days): 0.19 µg/mL
- Stability of Cannabinoids in AB Red ([2]; 21-25° C., 22 days): 0.20 µg/mL
- Stability of Cannabinoids in AB Red ([2]; 21-25° C., 23 days): 0.19 µg/mL
- Stability of Cannabinoids in AB Red ([2]; 21-25° C., 24 days): 0.19 µg/mL
- Stability of Cannabinoids in AB Red ([2]; 21-25° C., 25 days): 0.19 µg/mL
- Stability of Cannabinoids in AB Red ([2]; 21-25° C., 26 days): 0.19 µg/mL
- Stability of Cannabinoids in AB Red ([2]; 21-25° C., 29 days): 0.19 µg/mL
- Stability of Cannabinoids in AB Red ([2]; 21-25° C., 30 days): 0.20 µg/mL
- Stability of Cannabinoids in AB Red ([2]; 21-25° C., 60 days): 0.20 µg/mL
- Stability of Cannabinoids in AB Red ([2]; 21-25° C., 90 days): 0.19 µg/mL
- Stability of Cannabinoids in AB Red ([2]; 21-25° C., 120 days): 0.19 µg/mL
- Stability of Cannabinoids in AB Red ([2]; 21-25° C., 150 days): 0.20 µg/mL
- Stability of Cannabinoids in AB Red ([2]; 21-25° C., 180 days): 0.20 µg/mL
- Stability of Cannabinoids in AB Red ([2]; 21-25° C., 210 days): 0.19 µg/mL
- Stability of Cannabinoids in AB Red ([2]; 21-25° C., 240 days): 0.20 µg/mL
- Stability of Cannabinoids in AB Red ([2]; 21-25° C., 270 days): 0.20 µg/mL
- Stability of Cannabinoids in AB Red ([2]; 21-25° C., 300 days): 0.19 µg/mL
- Stability of Cannabinoids in AB Red ([2]; 21-25° C., 330 days): 0.19 µg/mL
- Stability of Cannabinoids in AB Red ([2]; 21-25° C., 390 days): 0.19 µg/mL
- Stability of Cannabinoids in AB Red ([2]; 21-25° C., 420 days): 0.19 µg/mL
- Stability of Cannabinoids in AB Red ([2]; 21-25° C., 450 days): 0.19 µg/mL
- Stability of Cannabinoids in AB Red ([2]; 21-25° C., 480 days): 0.19 µg/mL
- Stability of Cannabinoids in AB Red ([2]; 21-25° C., 510 days): 0.19 µg/mL
- Stability of Cannabinoids in AB Red ([2]; 21-25° C., 540 days): 0.19 µg/mL
- Stability of Cannabinoids in AB Red ([2]; 21-25° C., 570 days): 0.18 µg/mL
